This note sets out measurements from patent publication US9108984B2, “Substituted diamino-pyrimidine and diamino-pyridine derivatives as PI3K inhibitors” (Incyte Corporation, priority 2011, dated 2015).

Structures are written as SMILES.

Assay [1] has as its target PI3Kδ (p110δ/p85α) (Homo sapiens (Human), UniProt O00329). Nature of the assay: PI3Kδ scintillation proximity assay (enzyme assay). Format: biochemical. The following applies: PI3Kδ SPA, 20 μM ATP, 20 μM PIP2, 210 min. The text has this:
PI3Kδ Scintillation Proximity Assay
[γ-^33P]ATP (10 mCi/mL) was purchased from Perkin-Elmer (Waltham, Mass.). Lipid kinase substrate, D-myo-Phosphatidylinositol 4,5-bisphosphate (PtdIns(4,5)P2)D (+)-sn-1,2-di-O-octanoylglyceryl, 3-O-phospho linked (PIP2), CAS 204858-53-7, was purchased from Echelon Biosciences (Salt Lake City, Utah). PI3Kδ (p110δ/p85α) was purchased from Millipore (Bedford, Mass.). ATP, MgCl2, DTT, EDTA, MOPS and CHAPS were purchased from Sigma-Aldrich (St. Louis, Mo.). Wheat Germ Agglutinin (WGA) YSi SPA Scintillation Beads was purchased from GE healthcare life sciences (Piscataway, N.J.).
The kinase reaction was conducted in polystyrene 384-well matrix white plate from Thermo Fisher Scientific in a final volume of 25 μL. Inhibitors were first diluted serially in DMSO and added to the plate wells before the addition of other reaction components. The final concentration of DMSO in the assay was 0.5%. The PI3K assays were carried out at room temperature in 20 mM MOPS, pH 6.7, 10 mM MgCl2, 5 mM DTT and CHAPS 0.03%. Reactions were initiated by the addition of ATP, the final reaction mixture consisted of 20 μM PIP2, 20 μM ATP, 0.2 μCi [γ-^33P] ATP, 4 nM PI3Kδ. […] After the plate sealing, plates were shaken overnight at room temperature and centrifuged at 1800 rpm for 10 minutes, the radioactivity of the product was determined by scintillation counting on Topcount (Perkin-Elmer). […]

Assay [2] concerns Pfeiffer cells (diffuse large B cell lymphoma). Nature of the assay: Pfeiffer cell proliferation assay. To be noted: Homo sapiens, [3H]-thymidine incorporation, 3-4 days. Format: cell-based. The procedure: Pfeiffer Cell Proliferation Assay
Pfeiffer cell line (diffuse large B cell lymphoma) was purchased from ATCC (Manassas, Va.) and maintained in the culture medium recommended (RPMI and 10% FBS). To measure the anti-proliferation activity of the compounds, the Pfeiffer cells were plated with the culture medium (2×10^3 cells/well/per 200 μl) into 96-well ultra-low binding plates (Corning, Corning, N.Y.), in the presence or absence of a concentration range of test compounds. After 3-4 days, [^3H]-thymidine (1 μCi/well) (PerkinElmer, Boston, Mass.) in PBS wass then added to the cell culture for an additional 12 hours before the incorporated radioactivity was separated by filtration with water through GF/B filters (Packard Bioscience, Meridenj, Conn.) and measured by liquid scintillation counting with a TopCount (Packard Bioscience).

Sequence of PI3Kδ (p110δ/p85α) (O00329 whole entry): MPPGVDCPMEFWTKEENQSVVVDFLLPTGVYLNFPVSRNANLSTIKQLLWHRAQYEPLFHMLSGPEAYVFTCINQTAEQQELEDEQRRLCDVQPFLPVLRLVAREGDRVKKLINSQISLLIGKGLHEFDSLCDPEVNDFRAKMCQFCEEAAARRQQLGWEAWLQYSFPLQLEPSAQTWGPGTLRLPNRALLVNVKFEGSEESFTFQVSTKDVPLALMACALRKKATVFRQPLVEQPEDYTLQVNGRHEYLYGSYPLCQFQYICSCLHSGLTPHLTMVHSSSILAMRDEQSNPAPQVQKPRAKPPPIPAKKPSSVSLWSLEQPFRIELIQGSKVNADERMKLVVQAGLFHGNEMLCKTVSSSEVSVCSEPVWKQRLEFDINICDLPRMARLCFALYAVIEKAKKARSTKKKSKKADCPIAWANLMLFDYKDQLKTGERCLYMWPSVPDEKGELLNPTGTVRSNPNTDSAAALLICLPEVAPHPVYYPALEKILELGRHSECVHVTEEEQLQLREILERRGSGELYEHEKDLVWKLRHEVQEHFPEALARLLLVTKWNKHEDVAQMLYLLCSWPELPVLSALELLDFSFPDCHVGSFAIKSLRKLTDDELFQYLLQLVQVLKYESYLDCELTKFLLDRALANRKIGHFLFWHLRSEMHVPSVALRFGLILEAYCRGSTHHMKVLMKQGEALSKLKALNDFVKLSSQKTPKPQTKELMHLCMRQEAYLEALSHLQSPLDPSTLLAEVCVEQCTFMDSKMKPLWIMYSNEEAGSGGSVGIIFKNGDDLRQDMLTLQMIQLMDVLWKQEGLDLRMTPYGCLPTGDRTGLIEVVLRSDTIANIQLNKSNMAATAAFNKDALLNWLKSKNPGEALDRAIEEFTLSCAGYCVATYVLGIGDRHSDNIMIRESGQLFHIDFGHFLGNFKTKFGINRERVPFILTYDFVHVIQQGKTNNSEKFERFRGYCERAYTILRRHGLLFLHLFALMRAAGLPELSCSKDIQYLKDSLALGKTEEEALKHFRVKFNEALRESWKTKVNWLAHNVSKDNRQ
Sequence of PI3Kδ (p110δ/p85α) (P27986 whole entry partner): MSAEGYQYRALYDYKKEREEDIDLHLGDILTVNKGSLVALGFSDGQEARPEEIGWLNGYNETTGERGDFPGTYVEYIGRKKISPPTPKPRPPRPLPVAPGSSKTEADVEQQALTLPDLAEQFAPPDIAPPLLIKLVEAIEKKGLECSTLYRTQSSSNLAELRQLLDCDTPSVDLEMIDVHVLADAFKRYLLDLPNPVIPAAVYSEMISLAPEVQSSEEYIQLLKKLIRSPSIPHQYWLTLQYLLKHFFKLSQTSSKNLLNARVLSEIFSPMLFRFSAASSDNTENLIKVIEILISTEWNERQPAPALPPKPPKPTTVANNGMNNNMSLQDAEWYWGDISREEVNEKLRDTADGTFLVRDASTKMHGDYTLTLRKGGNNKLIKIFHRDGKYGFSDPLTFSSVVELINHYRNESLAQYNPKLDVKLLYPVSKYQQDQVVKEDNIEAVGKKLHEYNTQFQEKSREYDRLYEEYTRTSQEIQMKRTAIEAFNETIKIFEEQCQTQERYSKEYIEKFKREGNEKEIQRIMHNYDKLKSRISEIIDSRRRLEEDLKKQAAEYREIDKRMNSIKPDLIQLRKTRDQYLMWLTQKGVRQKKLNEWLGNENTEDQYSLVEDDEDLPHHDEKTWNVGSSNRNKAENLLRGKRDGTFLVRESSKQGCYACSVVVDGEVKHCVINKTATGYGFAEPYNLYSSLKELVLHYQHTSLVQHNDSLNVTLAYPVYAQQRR

In the case of `CC(Nc1ncnc(N)c1C#N)c1cc(Cl)c2ccnnc2c1-c1cccc(F)c1` (single isomer, unassigned) [Example 1, 4-Amino-6-({1-[5-chloro-8-(3-fluorophenyl)cinnolin-7-yl]ethyl}amino)-pyrimidine-5-carbonitrile], the IC50 in assay [1] and in assay [2] was < 20 nM in each case.

For the molecule `Cc1csc2nc([C@H](C)Nc3ncnc(N)c3C#N)c(-c3cccc(F)c3)c(=O)n12` [Example 2, 4-amino-6-({(1S)-1-[6-(3-fluorophenyl)-3-methyl-5-oxo-5H-[1,3]thiazolo[3,2-a]pyrimidin-7-yl]ethyl}amino)pyrimidine-5-carbonitrile], the IC50 in assay [1] and in assay [2] was < 20 nM throughout.
